Among the data in patent publication US12043632B2, “6-heteroaryloxy benzimidazoles and azabenzimidazoles as JAK2 inhibitors” (Ajax Therapeutics, Inc., priority 2020, dated 2024) are Kd values, retold here.

A value given as a limit tells only on which side of the number the result lay.

Broadly, the Kd is the equilibrium constant for the complex coming apart.

This test concerns the target T1, JAK2 (JH1domain-catalytic, Y1007F,Y1008F) kinase (Homo sapiens, UniProt O60674, Y1007F/Y1008F).
T1 construct: JAK2 (JH1domain-catalytic, Y1007F,Y1008F) kinase was expressed as N-terminal fusion; made in house; host or cells: transiently transfected HEK293 cells
Put plainly: JAK2 JH1 Domain Binding Assay. The note with it: qPCR readout. (In qPCR the cycle at which signal appears reflects the starting amount.)

T1 sequence (O60674 849-1124 Y1007F/Y1008F limits assumed): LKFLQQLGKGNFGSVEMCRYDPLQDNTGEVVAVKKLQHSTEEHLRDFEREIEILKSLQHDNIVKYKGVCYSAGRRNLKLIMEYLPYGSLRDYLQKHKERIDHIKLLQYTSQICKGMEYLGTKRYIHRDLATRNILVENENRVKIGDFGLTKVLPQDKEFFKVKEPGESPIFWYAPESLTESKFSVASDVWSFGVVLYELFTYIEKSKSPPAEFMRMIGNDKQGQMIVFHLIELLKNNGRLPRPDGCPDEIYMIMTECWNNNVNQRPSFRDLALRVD

On to `CN(C)Cc1cc(F)c(Nc2nc3ncc(Oc4cnn5ccncc45)c(Cl)c3n2C)cc1C(F)(F)F` [Example I-215, 7-chloro-N-(4-((dimethylamino)methyl)-2-fluoro-5-(trifluoromethyl)phenyl)-1-methyl-6-(pyrazolo[1,5-a]pyrazin-3-yloxy)-1H-imidazo[4,5-b]pyridin-2-amine], for which the Kd was less than 10 nM.

Regarding `Cn1c(Nc2cc(C3CC3)cn(CCCN3CCCC(F)(F)C3)c2=O)nc2ncc(Oc3cnn4ccncc34)c(Cl)c21` [Example I-129, 3-((7-chloro-1-methyl-6-(pyrazolo[1,5-a]pyrazin-3-yloxy)-1H-imidazo[4,5-b]pyridin-2-yl)amino)-5-cyclopropyl-1-(3-(3,3-difluoropiperidin-1-yl)propyl)pyridin-2(1H)-one], the Kd was in the range of 10 to 50 nM.

In the case of `CN1CC[C@@H](Oc2cc(Nc3nc4ncc(Oc5cnn6ccncc56)c(Cl)c4n3C)cc(C(F)(F)F)c2)C1` [Example I-209, (R)-7-chloro-1-methyl-N-(3-((1-methylpyrrolidin-3-yl)oxy)-5-(trifluoromethyl)phenyl)-6-(pyrazolo[1,5-a]pyrazin-3-yloxy)-1H-imidazo[4,5-b]pyridin-2-amine], the Kd fell in the range of 10 to 50 nM.

As for `Cn1c(Nc2cc(C(F)(F)F)cn(CCO)c2=O)nc2ncc(Oc3cnn4cc(F)ccc34)c(Cl)c21` [Example I-163, 3-((7-chloro-6-((6-fluoropyrazolo[1,5-a]pyridin-3-yl)oxy)-1-methyl-1H-imidazo[4,5-b]pyridin-2-yl)amino)-1-(2-hydroxyethyl)-5-(trifluoromethyl)pyridin-2(1H)-one], the Kd is less than 10 nM.

`Cn1c(Nc2cc(C3CC3)cn(CCCN3CCC(F)(F)C3)c2=O)nc2ncc(Oc3cnn4ccncc34)c(Cl)c21` [Example I-117, 3-((7-chloro-1-methyl-6-(pyrazolo[1,5-a]pyrazin-3-yloxy)-1H-imidazo[4,5-b]pyridin-2-yl)amino)-5-cyclopropyl-1-(3-(3,3-difluoropyrrolidin-1-yl)propyl)pyridin-2(1H)-one] showed a dissociation constant Kd of less than 10 nM.

Consider `Cn1c(Nc2cc(C(F)(F)F)cn([C@H]3CC[C@H]3O)c2=O)nc2ncc(Oc3cnn4ccncc34)c(Cl)c21` (single isomer, unassigned) [Example I-119-b], for which the Kd was less than 10 nM.

With `Cn1c(Nc2cc(C(F)(F)F)cn(CCCN3CCC(F)(F)C3)c2=O)nc2ncc(Oc3cnn4ccncc34)c(Cl)c21` [Example I-118, 3-((7-chloro-1-methyl-6-(pyrazolo[1,5-a]pyrazin-3-yloxy)-1H-imidazo[4,5-b]pyridin-2-yl)amino)-1-(3-(3,3-difluoropyrrolidin-1-yl)propyl)-5-(trifluoromethyl)pyridin-2(1H)-one], the Kd is 10 to 50 nM.

Turning to `Cn1c(C#N)c(C(F)(F)F)cc(Nc2nc3ncc(Oc4cnn5ccncc45)c(Cl)c3n2C)c1=O` [Example I-200, 5-((7-chloro-1-methyl-6-(pyrazolo[1,5-a]pyrazin-3-yloxy)-1H-imidazo[4,5-b]pyridin-2-yl)amino)-1-methyl-6-oxo-3-(trifluoromethyl)-1,6-dihydropyridine-2-carbonitrile], the Kd lay within 10 to 50 nM.

Consider `Cn1c(Nc2ccc(CN3CCC(F)(F)CC3)c(C(F)(F)F)c2)nc2ncc(Oc3cnn4ccncc34)c(Cl)c21` [Example I-173, 7-chloro-N-(4-((4,4-difluoropiperidin-1-yl)methyl)-3-(trifluoromethyl)phenyl)-1-methyl-6-(pyrazolo[1,5-a]pyrazin-3-yloxy)-1H-imidazo[4,5-b]pyridin-2-amine], for which the Kd was 10 to 50 nM.

The molecule `CNc1nccn2ncc(Oc3cnc4nc(Nc5cc6c(c(C(F)(F)F)c5)C(C)(C)N(C)C6=O)n(C)c4c3C#N)c12` [Example I-240, 1-methyl-6-((4-(methylamino)pyrazolo[1,5-a]pyrazin-3-yl)oxy)-2-((1,1,2-trimethyl-3-oxo-7-(trifluoromethyl)isoindolin-5-yl)amino)-1H-imidazo[4,5-b]pyridine-7-carbonitrile] displayed a dissociation constant (Kd) of 50 to 1000 nM.

For `CN1CC[C@H](Oc2cc(Nc3nc4ncc(Oc5cnn6ccncc56)c(Cl)c4n3C)cc(C(F)(F)F)c2)C1` [Example I-210, (S)-7-chloro-1-methyl-N-(3-((1-methylpyrrolidin-3-yl)oxy)-5-(trifluoromethyl)phenyl)-6-(pyrazolo[1,5-a]pyrazin-3-yloxy)-1H-imidazo[4,5-b]pyridin-2-amine], the dissociation constant (Kd) was less than 10 nM.

As for `CNc1nccn2ncc(Oc3cnc4nc(Nc5cc(O[C@@H]6CCN(C)C6)cc(C(F)(F)F)c5)n(C)c4c3Cl)c12` [Example I-229, (R)-7-chloro-1-methyl-6-((4-(methylamino)pyrazolo[1,5-a]pyrazin-3-yl)oxy)-N-(3-((1-methylpyrrolidin-3-yl)oxy)-5-(trifluoromethyl)phenyl)-1H-imidazo[4,5-b]pyridin-2-amine], the dissociation constant (Kd) is 10 to 50 nM.

As for `COc1ccc2c(Oc3cnc4nc(Nc5cc6n(n5)CCCC6(F)F)n(C)c4c3C#N)cnn2c1` [Example I-374, 2-((4,4-difluoro-4,5,6,7-tetrahydropyrazolo[1,5-a]pyridin-2-yl)amino)-6-((6-methoxypyrazolo[1,5-a]pyridin-3-yl)oxy)-1-methyl-1H-imidazo[4,5-b]pyridine-7-carbonitrile], the Kd is less than 10 nM.

`CNc1ccc2c(Oc3cnc4nc(Nc5cc(C(F)(F)F)cn(C)c5=O)n(C)c4c3)cnn2c1` [Example I-320, 1-methyl-3-((1-methyl-6-((6-(methylamino)pyrazolo[1,5-a]pyridin-3-yl)oxy)-1H-imidazo[4,5-b]pyridin-2-yl)amino)-5-(trifluoromethyl)pyridin-2(1H)-one] came in with a Kd of 10 to 50 nM.

With `Cn1c(F)c(C2CC2)cc(Nc2nc3ncc(Oc4cnn5ccncc45)c(Cl)c3n2C)c1=O` [Example I-266, 3-((7-chloro-1-methyl-6-(pyrazolo[1,5-a]pyrazin-3-yloxy)-1H-imidazo[4,5-b]pyridin-2-yl)amino)-5-cyclopropyl-6-fluoro-1-methylpyridin-2(1H)-one], the Kd was less than 10 nM.

Molecule `Cc1nc(Nc2nc3ncc(Oc4cnn5ccncc45)c(Cl)c3n2C)nc(C)c1C1CC1` [Example I-231, 7-chloro-N-(5-cyclopropyl-4,6-dimethylpyrimidin-2-yl)-1-methyl-6-(pyrazolo[1,5-a]pyrazin-3-yloxy)-1H-imidazo[4,5-b]pyridin-2-amine] returned a Kd of less than 10 nM.

The molecule `Cc1cc2ncc(Oc3cnc4nc(Nc5cc(C(C)(C)C)n([C@H]6CCOC6)n5)n(C)c4c3Cl)cn2n1` [Example I-6, (S)—N-(5-(tert-butyl)-1-(tetrahydrofuran-3-yl)-1H-pyrazol-3-yl)-7-chloro-1-methyl-6-((2-methylpyrazolo[1,5-a]pyrimidin-6-yl)oxy)-1H-imidazo[4,5-b]pyridin-2-amine] registered a dissociation constant Kd of 10 to 50 nM.

Molecule `Cn1c(Nc2cc(C(C)(C)C)n([C@@H]3CCN(CCF)C3)n2)nc2ncc(Oc3cnn4ccnc4c3)c(Cl)c21` [Example I-26, (R)—N-(5-(tert-butyl)-1-(1-(2-fluoroethyl)pyrrolidin-3-yl)-1H-pyrazol-3-yl)-7-chloro-6-(imidazo[1,2-b]pyridazin-7-yloxy)-1-methyl-1H-imidazo[4,5-b]pyridin-2-amine] had a Kd of 50 to 1000 nM.

As to `CNc1cn2ncc(Oc3cnc4nc(Nc5cc(C(F)(F)F)cn(C)c5=O)n(C)c4c3Cl)c2cn1` [Example I-304, 3-((7-chloro-1-methyl-6-((6-(methylamino)pyrazolo[1,5-a]pyrazin-3-yl)oxy)-1H-imidazo[4,5-b]pyridin-2-yl)amino)-1-methyl-5-(trifluoromethyl)pyridin-2(1H)-one], the Kd was less than 10 nM.

For the molecule `Cn1c(Nc2cc(C(C)(C)C)n(CCC#N)n2)nc2ncc(Oc3cnn4ccncc34)c(Cl)c21` [Example I-61, 3-(5-(tert-butyl)-3-((7-chloro-1-methyl-6-(pyrazolo[1,5-a]pyrazin-3-yloxy)-1H-imidazo[4,5-b]pyridin-2-yl)amino)-1H-pyrazol-1-yl)propanenitrile], the Kd was less than 10 nM.

In turn, `Cn1c(Nc2cc(C3CC3)cn([C@H]3CC[C@H]3O)c2=O)nc2ncc(Oc3cnn4ccccc34)c(Cl)c21` (single isomer, unassigned) [Example I-114-b] gave a Kd of less than 10 nM.

The molecule `COc1c(Oc2cnc3cnc(C4CC4)n3c2)cnc2nc(Nc3cc(C(C)(C)C)n([C@H]4C[C@H](O)C4)n3)n(C)c12` [Example I-130, (1r,3r)-3-(5-(tert-butyl)-3-((6-((6-cyclopropylimidazo[1,5-a]pyrimidin-3-yl)oxy)-7-methoxy-1-methyl-1H-imidazo[4,5-b]pyridin-2-yl)amino)-1H-pyrazol-1-yl)cyclobutan-1-ol] had a Kd of 10 to 50 nM.

For `CNc1cn2ncc(Oc3cnc4nc(Nc5cc(C(F)(F)F)cn([C@@H]6CCOC6)c5=O)n(C)c4c3Cl)c2cn1` (single isomer, unassigned) [Example I-306], the Kd is 10 to 50 nM.

Take `CCc1cc(Nc2nc3ncc(Oc4cnn5ccncc45)c(Cl)c3n2C)cc(C(=O)N2CCC2)n1` [Example I-188, Azetidin-1-yl(4-((7-chloro-1-methyl-6-(pyrazolo[1,5-a]pyrazin-3-yloxy)-1H-imidazo[4,5-b]pyridin-2-yl)amino)-6-ethylpyridin-2-yl)methanone]: the Kd was less than 10 nM.

`Cn1c(Nc2cc(C(C)(C)C)n([C@H]3C[C@H](O)C3)n2)nc2ncc(Oc3cnn4ccncc34)c(Cl)c21` [Example I-55, trans-3-(5-(tert-butyl)-3-((7-chloro-1-methyl-6-(pyrazolo[1,5-a]pyrazin-3-yloxy)-1H-imidazo[4,5-b]pyridin-2-yl)amino)-1H-pyrazol-1-yl)cyclobutan-1-ol] registered a dissociation constant (Kd) of less than 10 nM.

`CNc1cn2ncc(Oc3cnc4nc(Nc5cc(C(=O)N(C)C)c(F)c(C(F)(F)F)c5)n(C)c4c3Cl)c2cn1` [Example I-348, 5-((7-chloro-1-methyl-6-((6-(methylamino)pyrazolo[1,5-a]pyrazin-3-yl)oxy)-1H-imidazo[4,5-b]pyridin-2-yl)amino)-2-fluoro-N,N-dimethyl-3-(trifluoromethyl)benzamide] gave a Kd of 10 to 50 nM.
